How the values were obtained:
[1] = system: production of CXCL-10 stimulated by IFNα in PBMC; test: ELISA: production of CXCL-10 stimulated by IFNα in PBMC; assay type: cell-based; settings: CXCL-10 production stimulated by IFNα in PBMC, ELISA
Description: • 1. Soak plate: Add 300 μL 1×washing solution and let stand for 30 seconds. After discarding the washing solution, dry the microporous plate on absorbent paper. • 2. Add standard: Add 100 μL of 2-fold standard to standard well. Add 100 μL standard dilution (serum/plasma sample) or culture medium (cell culture supernatant sample) to blank well. • 3. Add sample: Serum/plasma: Add 50 μL 1×assay buffer and 50 μL sample to sample well. Cell culture supernatant: Add 100 μL cell culture supernatant to sample well. • 4. Add detection antibody: Add 50 μL diluted detection antibody (1:100 diluted) to each well. Make sure steps 4, 5 and 6 are added continuously without interruption. The sampling process was completed within 15 minutes. • 5. Incubation: Use sealing plate film to seal the plate. shake at 300 rpm and incubate for 2 hours at room temperature. • 6. Washing: Discard the liquid, add 300 μL of washing solution and wash the plate 6 times. pat dry on blotting paper after each wash. To obtain the desired experimental performance, the residual liquid must be completely removed. • 7. Enzyme addition: Add 100 μL diluted horseradish peroxidase labeled streptavidin to each well (1:100 diluted). • 8. Incubation: Seal the plate with a new sealing film. shake at 300 rpm and incubate at room temperature for 45 minutes. • 9. Washing. Repeat step […]. • 10. Add substrate for color development: Add 100 μL of color development substrate TMB to each well, keep away from light, and incubate at room temperature for 5-30 minutes. • 11. Add Stop Solution: Add 100 μL stop solution to each well. The color changed from blue to yellow. If the color appears green or the color changes unevenly, gently tap the frame of the plate to mix well. • 12. Assay readout: Within 30 minutes, perform dual wavelength detection using a microplate reader to measure the OD at the absorption maximum at 450 nm and reference wavelengths at 570 nm or 630 nm. The calibrated OD value is the measured value at 450 nm minus the measured value at 570 nm or 630 nm.

TYK2 JH2 = TYK2 JH2 (Homo sapiens (Human), UniProt P29597); test: Competitive binding assay (kinase-tagged phage, qPCR), TYK2 JH2
Description: (§1) For most assays, kinase-tagged T7 phage strains were prepared in an E. coli host derived from the BL21 strain. E. coli were grown to log-phase and infected with T7 phage and incubated with shaking at 32° C. until lysis. The lysates were centrifuged and filtered to remove cell debris. The remaining kinases were produced in HEK-293 cells and subsequently tagged with DNA for qPCR detection. Streptavidin coated magnetic beads were treated with biotinylated small molecule ligands for 30 minutes at room temperature to generate affinity resins for kinase assays. The liganded beads were blocked with excess biotin and washed with blocking buffer (SeaBlock (Pierce), 1% BSA, 0.05% Tween 20, 1 mM DTT) to remove unbound ligand and to reduce non-specific binding. […] Test compounds were prepared as 111X stocks in 100% DMSO. Dissociation constants (Kds) were determined using an 11-point 3-fold compound dilution series with three DMSO control points. All compounds for Kd measurements are distributed by acoustic transfer (non-contact dispensing) in 100% DMSO. The compounds were then diluted directly into the assays such that the final concentration of DMSO was 0.9%. All reactions performed in polypropylene 384-well plate. Each was a final volume of 0.02 ml. The assay plates were incubated at room temperature with shaking for 1 hour and the affinity beads were washed with wash buffer (1×PBS, 0.05% Tween 20). The beads were then re-suspended in elution buffer (1×PBS, 0.05% Tween 20, 0.5 μM nonbiotinylated affinity ligand) and incubated at room temperature with shaking for 30 minutes. The kinase concentration in the eluates was measured by qPCR.
(§2) An 11-point 3-fold serial dilution of each test compound was prepared in 100% DMSO at 100× final test concentration and subsequently diluted to 1× in the assay (final DMSO concentration=1%). Most Kds were determined using a compound top concentration=30,000 nM. If the initial Kd determined was <0.5 nM (the lowest concentration tested), the measurement was repeated with a serial dilution starting at a lower top concentration.
(§3) Binding constants (Kds) were calculated with a standard dose-response curve using the Hill equation: […]
(§4) The Hill Slope was set to −1.
(§5) Curves were fitted using a non-linear least square fit with the Levenberg-Marquardt algorithm.

JAK2 JH1 = JAK2 JH1 (Homo sapiens (Human), UniProt O60674); test: Competitive binding assay (kinase-tagged phage, qPCR), JAK2 JH1
Description: For most assays, kinase-tagged T7 phage strains were prepared in an E. coli host derived from the BL21 strain. E. coli were grown to log-phase and infected with T7 phage and incubated with shaking at 32° C. until lysis. The lysates were centrifuged and filtered to remove cell debris. The remaining kinases were produced in HEK-293 cells and subsequently tagged with DNA for qPCR detection. Streptavidin coated magnetic beads were treated with biotinylated small molecule ligands for 30 minutes at room temperature to generate affinity resins for kinase assays. The liganded beads were blocked with excess biotin and washed with blocking buffer (SeaBlock (Pierce), 1% BSA, 0.05% Tween 20, 1 mM DTT) to remove unbound ligand and to reduce non-specific binding. […] Test compounds were prepared as 111X stocks in 100% DMSO. Dissociation constants (Kds) were determined using an 11-point 3-fold compound dilution series with three DMSO control points. […] The kinase concentration in the eluates was measured by qPCR.
An 11-point 3-fold serial dilution of each test compound was prepared in 100% DMSO at 100× final test concentration and subsequently diluted to 1× in the assay (final DMSO concentration=1%). Most Kds were determined using a compound top concentration=30,000 nM. […]
as §3

JAK1 JH1 = JAK1 JH1 (Homo sapiens (Human), UniProt P23458); test: Competitive binding assay (kinase-tagged phage, qPCR), JAK1 JH1
Description: as §1, §2, §3, §4, §5

TYK2/JAK1 pathway = test: Selectivity: TYK2/JAK1 pathway, IFN-α-induced p-STAT1 in human PBMC, western blot; assay type: cell-based; settings: IFN-α 100 ng/mL, western blot
Description: Commercial human PBMC (peripheral blood mononuclear cells) were centrifuged (400 g) for 10 min, counted and planted on 6-well plates (5 million/well). Then, the compounds to be tested were added for 2 hours and IFN-α (100 ng/mL) was added to stimulate cells for 15 minutes. Protein lysate was used to lysate cells, and BCA kit was used for protein quantification. Finally, p-STAT1/STAT1, P-TYK2/TYK2 and internal reference protein B-Actin were detected by Western blot.

TYK2 = TYK2 (Mus musculus (Mouse), UniProt Q9R117); test: Luciferase assay in L929 ISRE cells stimulated with IFN-α; assay type: cell-based; settings: IFN-α 100 ng/mL; for inhibition at 1 µM: read-out: Inhibitory activity % (1000 nM)
Description: • 1. L929 ISRE cells (5000 cells/well) were seeded on 96-well plates and incubated overnight at room temperature; • 2. The cells were pretreated by adding different concentrations (10 nM, 50 nM, 100 nM, 200 nM or 1000 nM) of the test compounds for 2 hours; • 3. Added IFN-α (100 ng/mL) to stimulate cells for 6 hours; • 4. Removed the upper medium, add PBS (100 μL) and washed, then removed PBS; • 5. Added PLB lysis solution (50 μL) to each well, shook the well for 15 minutes; • 6. Transferred PLB lysis solution (30 μL) to a new 96-well whiteboard, added LAR II reagent (LAR II), then quickly read the […]; • 7. Added Stop & Glo reagent (30 μL), then read the 450 nm OD value using the plate washer. • 8. The final results in Table 3 were the OD value in step 6/OD value in step 7.

hERG channel = hERG channel (Homo sapiens (Human), UniProt Q12809); test: in vitro; settings: human
Description: Chinese hamster ovary (CHO) cell line, CHO-hERG cells were used in this study. CHO-hERG cells were derived from Sophion Biosciences Inc. (Ballerup, Denmark) in Suzhou, China. The cell reserve fluid is frozen in liquid nitrogen tanks. Each batch of stored cell fluid is tested for mycoplasma contamination. The cells were no longer used after 30 generations.
The whole cell patch clamp technique was used to record hERG current at room temperature. The patch-clamp amplifier outputs signals through […] conversion and 2.9 KHz low-pass filtering. Data records were collected by Patchmaster Pro software.
Cells were planted in a cell recording tank and placed on an inverted microscope platform. One cell in the recording tank was randomly selected for experiment. The perfusion system was fixed on an inverted microscope platform and cells were continuously irrigated with ECS.
Manual patch clamp recording microelectrode was prepared with capillary glass tube, which was filled with intracellular fluid. On the day of the patch clamp test, the electrodes were prepared using a borosilicate glass tube (GC150TF-10, Harvard Apparatus Co. UK). The resistance is between 2-5 MΩ after the electrode is filled with ICS.
The clamping voltage was −80 mV, and the first step was depolarized to +60 mV for 850 ms to open the hERG channel. The voltage is then set to −50 mV and maintained for 1275 ms, resulting in a rebound current or tail current, the peak of which is measured and used for analysis. Finally, the voltage is restored to the clamping voltage (−80 mV). During the test, the command voltage program was repeated every 15 s.
At the beginning of recording the perfusion of the solvent control working solution, the test substance/positive control working solution to be tested can be poured after monitoring the tail current peak until more than 3 scanning curves are stable, until the inhibition of the test substance/positive control working solution to the hERG current peak reaches a stable state. Generally, the most recent three consecutive peak values of the current curve basically coincide as a criterion to judge whether the state is stable. After reaching a stable state, continue to pour one concentration of the test sample. One or more test subjects/positive controls, or multiple concentrations of the same drug, can be tested on a cell, and the different test subjects/positive controls need to be rinsed with a solvent control working fluid until the hERG current returns to more than 80% of its pre-drug level.
The concentration of positive control cisapride was 0.1 μM, and two cells were repeated.

JAK2/JAK2 pathway = test: Selectivity: JAK2/JAK2 pathway, TPO-induced p-STAT3 in MEG-1 cells, western blot; assay type: cell-based; settings: TPO 100 ng/mL
Description: MEG-1 cells were digested by trypsin, re-suspended in 1640 medium and counted. The compounds to be measured were added to 6 well plates (1 million/per well) for 2 hours, and then TPO (final concentration: 100 ng/mL) was added to stimulate cells for 30 minutes. The cells were collected and lysed with protein lysate. The protein was quantitatively tested by BCA kit. Finally, p-STAT3/STAT3 and internal reference protein β-actin were detected by western blot.

JAK1/JAK3 pathway = test: Selectivity: JAK1/JAK3 pathway, IL-2-induced p-STAT5 in human PBMC, western blot; assay type: cell-based; settings: IL-2 100 ng/mL
Description: Commercial human PBMC (peripheral blood mononuclear cells) were centrifuged (400 g) for 10 min, counted and seeded into 6-well plates (5 million/well). The compounds to be tested were added for 2 hours and then IL-2 (100 ng/mL) was added to stimulate cells for 15 minutes. Finally, p-STAT5/STAT5 and internal reference protein β-actin were detected by Western blot.

IL-23 induced psoriasis = IL-23 induced psoriasis in mice (ear thickness); assay type: in vivo; settings: oral gavage twice a day, 14 days, B41 10 and 30 mg/kg, BMS986165 10 mg/kg
Description: Recombinant human IL-23 (100 ng/time/mouse) was injected into the right ear of mice every two days starting from day 1 of the study. The administration group included 7 mice, with EtOH:TPGS:PEG300=[…] as vehicle, compound B41 (10 mg/kg, 30 mg/kg) or BMS986165 (10 mg/kg) orally gavage twice a day the night before the first injection of IL-23. The control group was injected with vehicle alone. The experiment lasted for 14 days. The thickness of the ear was measured with a micrometer every two days.

JAK1/JAK2 pathway = test: Selectivity: JAK1/JAK2 pathway, IFN-γ-induced p-STAT1 in HT-29 cells, western blot; assay type: cell-based; settings: IFN-γ 100 ng/mL
Description: HT-29 cells were digested by trypsin and suspended in DMEM medium and counted. The tested compounds were added into 6 well plates (400 000/per well) for 2 hours, then IFN-γ (100 ng/mL) was added to stimulate cells for 30 minutes. The cells were collected and lysed with protein lysate. The protein was quantitatively tested by BCA kit. Finally, p-STAT1/STAT1 and internal reference protein β-actin were detected by western blot.

Chain of TYK2 (Q9R117 whole entry): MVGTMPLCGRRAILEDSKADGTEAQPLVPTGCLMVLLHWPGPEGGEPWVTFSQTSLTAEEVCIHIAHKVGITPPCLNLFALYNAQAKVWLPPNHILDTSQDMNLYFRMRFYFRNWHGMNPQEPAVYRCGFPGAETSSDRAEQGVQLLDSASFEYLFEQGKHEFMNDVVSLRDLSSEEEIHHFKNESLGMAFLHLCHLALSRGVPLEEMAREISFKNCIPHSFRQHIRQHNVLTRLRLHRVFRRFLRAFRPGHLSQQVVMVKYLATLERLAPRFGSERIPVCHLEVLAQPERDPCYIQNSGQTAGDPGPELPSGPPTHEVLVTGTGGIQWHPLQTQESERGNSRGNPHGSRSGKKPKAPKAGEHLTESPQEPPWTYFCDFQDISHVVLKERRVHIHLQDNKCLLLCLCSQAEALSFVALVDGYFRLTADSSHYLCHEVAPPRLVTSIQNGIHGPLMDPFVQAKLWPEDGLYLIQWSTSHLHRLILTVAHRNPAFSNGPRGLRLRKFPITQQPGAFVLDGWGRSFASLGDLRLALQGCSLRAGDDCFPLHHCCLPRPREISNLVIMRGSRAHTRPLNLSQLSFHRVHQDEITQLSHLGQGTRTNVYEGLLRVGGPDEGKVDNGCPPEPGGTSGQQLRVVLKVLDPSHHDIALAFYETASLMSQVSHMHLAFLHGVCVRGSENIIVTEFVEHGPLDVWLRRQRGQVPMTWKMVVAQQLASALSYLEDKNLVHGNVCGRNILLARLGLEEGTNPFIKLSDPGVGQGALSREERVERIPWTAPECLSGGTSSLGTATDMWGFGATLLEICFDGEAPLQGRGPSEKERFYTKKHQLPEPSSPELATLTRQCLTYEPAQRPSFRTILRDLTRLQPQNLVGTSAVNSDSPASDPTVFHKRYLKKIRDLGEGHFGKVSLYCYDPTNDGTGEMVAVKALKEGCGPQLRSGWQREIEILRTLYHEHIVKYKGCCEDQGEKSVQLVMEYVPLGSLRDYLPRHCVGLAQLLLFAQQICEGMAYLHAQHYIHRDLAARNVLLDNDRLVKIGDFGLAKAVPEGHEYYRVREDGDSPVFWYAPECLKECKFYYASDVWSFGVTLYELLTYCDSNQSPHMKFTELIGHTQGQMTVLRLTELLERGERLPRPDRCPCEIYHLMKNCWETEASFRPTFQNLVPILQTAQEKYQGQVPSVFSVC
Chain of TYK2 JH2 (P29597 589-875): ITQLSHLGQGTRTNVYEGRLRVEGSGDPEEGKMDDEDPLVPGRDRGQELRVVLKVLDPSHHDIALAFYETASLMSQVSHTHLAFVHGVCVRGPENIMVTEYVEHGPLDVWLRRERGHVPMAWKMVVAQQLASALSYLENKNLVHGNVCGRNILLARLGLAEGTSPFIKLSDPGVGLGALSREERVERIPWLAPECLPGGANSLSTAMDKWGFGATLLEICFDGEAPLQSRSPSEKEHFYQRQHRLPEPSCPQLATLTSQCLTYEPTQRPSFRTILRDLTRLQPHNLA
Chain of JAK1 JH1 (P23458 875-1153): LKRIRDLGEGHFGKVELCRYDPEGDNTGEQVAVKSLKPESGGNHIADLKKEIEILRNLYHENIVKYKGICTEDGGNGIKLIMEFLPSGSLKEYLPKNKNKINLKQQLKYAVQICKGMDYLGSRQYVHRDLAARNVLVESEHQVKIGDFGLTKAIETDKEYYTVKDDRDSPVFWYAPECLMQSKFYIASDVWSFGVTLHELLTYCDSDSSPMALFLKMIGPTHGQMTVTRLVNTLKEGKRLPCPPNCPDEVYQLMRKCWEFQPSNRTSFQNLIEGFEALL
Chain of hERG channel (Q12809 whole entry): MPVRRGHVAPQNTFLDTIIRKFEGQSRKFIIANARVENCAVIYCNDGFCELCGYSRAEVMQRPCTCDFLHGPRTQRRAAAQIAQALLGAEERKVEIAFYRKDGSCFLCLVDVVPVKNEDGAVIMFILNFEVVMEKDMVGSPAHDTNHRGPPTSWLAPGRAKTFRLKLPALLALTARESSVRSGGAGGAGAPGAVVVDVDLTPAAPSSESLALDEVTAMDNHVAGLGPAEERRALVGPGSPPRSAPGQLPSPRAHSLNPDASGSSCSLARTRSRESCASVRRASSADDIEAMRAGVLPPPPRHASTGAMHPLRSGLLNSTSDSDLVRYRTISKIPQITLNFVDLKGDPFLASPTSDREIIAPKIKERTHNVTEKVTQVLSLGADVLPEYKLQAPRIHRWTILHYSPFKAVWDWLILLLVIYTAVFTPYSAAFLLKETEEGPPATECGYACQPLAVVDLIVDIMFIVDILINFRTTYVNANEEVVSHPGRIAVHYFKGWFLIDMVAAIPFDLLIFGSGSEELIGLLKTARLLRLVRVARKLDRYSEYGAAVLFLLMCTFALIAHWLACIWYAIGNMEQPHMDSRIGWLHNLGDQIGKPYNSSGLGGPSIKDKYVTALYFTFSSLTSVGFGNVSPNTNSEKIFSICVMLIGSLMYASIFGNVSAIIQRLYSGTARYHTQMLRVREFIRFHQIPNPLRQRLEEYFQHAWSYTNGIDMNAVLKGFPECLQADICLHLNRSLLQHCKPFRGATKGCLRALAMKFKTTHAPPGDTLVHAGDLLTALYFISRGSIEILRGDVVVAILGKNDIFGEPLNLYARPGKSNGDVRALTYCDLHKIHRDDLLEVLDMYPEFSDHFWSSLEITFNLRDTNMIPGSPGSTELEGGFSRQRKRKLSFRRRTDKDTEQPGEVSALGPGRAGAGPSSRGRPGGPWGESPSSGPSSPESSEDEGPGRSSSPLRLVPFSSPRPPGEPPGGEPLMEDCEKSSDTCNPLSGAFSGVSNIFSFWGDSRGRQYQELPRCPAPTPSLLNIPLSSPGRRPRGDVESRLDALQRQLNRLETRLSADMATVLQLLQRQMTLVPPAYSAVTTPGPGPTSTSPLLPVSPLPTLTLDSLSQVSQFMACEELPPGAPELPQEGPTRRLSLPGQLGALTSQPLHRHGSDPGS
Chain of JAK2 JH1 (O60674 849-1124): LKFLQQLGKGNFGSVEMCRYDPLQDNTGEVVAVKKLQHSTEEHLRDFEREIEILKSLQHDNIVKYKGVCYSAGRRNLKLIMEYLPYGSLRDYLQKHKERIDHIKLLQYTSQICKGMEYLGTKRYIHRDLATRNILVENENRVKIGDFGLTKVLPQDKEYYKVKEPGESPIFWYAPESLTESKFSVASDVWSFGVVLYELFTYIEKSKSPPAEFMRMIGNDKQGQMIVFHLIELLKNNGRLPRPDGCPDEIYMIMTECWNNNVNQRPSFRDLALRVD

| Kd (TYK2 JH2) [nM] | Kd (JAK1 JH1) [nM] | inhibition at 1 µM (TYK2; 1000 nM) [%] | Compound | also measured |
| --- | --- | --- | --- | --- |
| 0.0079 | > 30000 | 95 | CCC(=O)c1cnc(NC(=O)C2CC2)cc1Nc1nccc(-c2cc(P(=O)(C3CC3)C3CC3)n(C)n2)c1OC [Compound B38] | IC50 [1]: 222 nM; Kd (JAK2 JH1): 11000 nM; inhibition of downstream STAT1 phosphorylation induced by IFN-α (TYK2/JAK1 pathway): effectively inhibit |
|  |  |  | COc1cc(N)c(Cl)cc1C(=O)NC1CCN(CCCOc2ccc(F)cc2)CC1OC (stereo not drawn) [Cisapride, reference compound] | inhibition at 0.1 µM (hERG channel): > 50% |
| 0.016 | > 30000 | 62 | CCC(=O)c1cnc(NC(=O)C2CC2)cc1Nc1cccc(-c2ncc(P(C)(C)=O)cn2)c1OC [Compound B11] |  |
| 0.032 | > 30000 | 58 | CCC(=O)c1cnc(NC(=O)C2CC2)cc1Nc1cccc(-c2ccc(P(C)(C)=O)cn2)c1OC [Compound B4] |  |
|  |  |  | N#CC[C@H](C1CCCC1)n1cc(-c2ncnc3[nH]ccc23)cn1 [Ruxolitinib, reference compound] | effect on TPO-induced downstream STAT3 phosphorylation (JAK2/JAK2 pathway): could inhibit JAK2/JAK2 pathway |
| 0.4 | > 30000 | 88 | CCC(=O)c1cnc(NC(=O)C2CC2)cc1Nc1cccc(-c2ccc(P(C)(C)=O)cc2)c1OC [Compound B3] | inhibition at 0.01 µM (TYK2; 10 nM, read-out: Inhibitory activity % (10 nM)): 21%; inhibition at 0.1 µM (TYK2; 100 nM, read-out: Inhibitory activity % (100 nM)): 46% |
| 0.095 | > 30000 | 80 | CCC(=O)c1cnc(NC(=O)C2CC2)cc1Nc1cccc(-c2cnc(P(C)(C)=O)cn2)c1OC [Compound B5] |  |
|  |  |  | BMS986165 [reference compound] | IC50 [1]: 56.8 nM; effect on IL-2-induced downstream STAT5 phosphorylation (JAK1/JAK3 pathway): no effect; effect on TPO-induced downstream STAT3 phosphorylation (JAK2/JAK2 pathway): no effect; efficacy in IL-23 induced psoriasis (ear thickness) (IL-23 induced psoriasis): effectively inhibit and treat; effect on downstream STAT1 phosphorylation induced by IFN-γ (JAK1/JAK2 pathway): no effect; Inhibitory activity % (50 nM) (TYK2; 50 nM): 74%; Inhibitory activity % (200 nM) (TYK2; 200 nM): 89%; Inhibitory activity % (1000 nM) (TYK2; 1000 nM): 96% |
